Test results reported in ChEMBL document CHEMBL5727382, “[1,2,3]triazolo[4,5-D]pyrimidine derivatives with affinity for the type-2 cannabinoid receptor” (2019).
pKi: −log10 of the molar value.

What was measured:
Cannabinoid receptor 1 = Cannabinoid receptor 1 (Homo sapiens, UniProt P21554); experiment: (§1) Radioligand Binding Assay: he affinity of the compounds of the invention for cannabinoid receptors was determined using recommended amounts of membrane preparations (PerkinElmer) of human embryonic kidney (HEK) cells expressing the human CNR1 or CNR2 receptors in conjunction with 1.5 or 2.6 nM [3H]-CP-55,940 (Perkin Elmer) as radioligand, respectively. Binding was performed in binding buffer (50 mM Tris, 5 mM MgCl2, 2.5 mM EDTA, and 0.5% (wt/vol) fatty acid free BSA, pH 7.4 for CB1 receptor and 50 mM Tris, 5 mM MgCl2, 2.5 mM EGTA, and 0.1% (wt/vol) fatty acid free BSA, pH 7.4 for CB2 receptor) in a total volume of 0.2 mL for 1 h at 30° C. shaking. The reaction was terminated by rapid filtration through microfiltration plates coated with 0.5% polyethylenimine (UniFilter GF/B filter plate; Packard). Bound radioactivity was analyzed for Ki using nonlinear regression analysis (Activity Base, ID Business Solution, Limited), with the Kd values for [3H]CP55,940 determined from saturation experiments.
Chain of Cannabinoid receptor 1 (P21554 whole entry): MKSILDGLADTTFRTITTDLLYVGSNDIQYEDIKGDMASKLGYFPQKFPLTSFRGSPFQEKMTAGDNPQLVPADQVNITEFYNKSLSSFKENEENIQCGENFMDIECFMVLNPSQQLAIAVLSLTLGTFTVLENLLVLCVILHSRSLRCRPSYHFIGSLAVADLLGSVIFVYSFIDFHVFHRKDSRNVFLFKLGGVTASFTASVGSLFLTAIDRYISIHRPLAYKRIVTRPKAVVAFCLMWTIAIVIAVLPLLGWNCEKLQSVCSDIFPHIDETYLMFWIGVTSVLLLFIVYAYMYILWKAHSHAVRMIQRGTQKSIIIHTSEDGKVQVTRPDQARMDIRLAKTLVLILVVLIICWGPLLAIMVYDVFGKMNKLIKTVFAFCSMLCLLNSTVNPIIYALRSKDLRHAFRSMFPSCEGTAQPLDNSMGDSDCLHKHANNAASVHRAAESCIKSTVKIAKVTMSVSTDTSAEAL

Cannabinoid receptor 2 = Cannabinoid receptor 2 (Homo sapiens, UniProt P34972); experiment: as §1
Chain of Cannabinoid receptor 2 (P34972 whole entry): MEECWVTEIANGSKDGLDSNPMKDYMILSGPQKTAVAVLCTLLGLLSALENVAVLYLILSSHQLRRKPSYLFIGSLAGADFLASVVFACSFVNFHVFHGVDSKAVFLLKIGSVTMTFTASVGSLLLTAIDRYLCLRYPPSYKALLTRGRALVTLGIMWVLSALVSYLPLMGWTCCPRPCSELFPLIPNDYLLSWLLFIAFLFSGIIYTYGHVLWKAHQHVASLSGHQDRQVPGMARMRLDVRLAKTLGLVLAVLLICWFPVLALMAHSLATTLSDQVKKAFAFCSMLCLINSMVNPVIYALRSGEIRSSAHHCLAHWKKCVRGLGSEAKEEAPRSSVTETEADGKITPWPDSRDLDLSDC

Compound | pKi (Cannabinoid receptor 1) | pKi (Cannabinoid receptor 2)
CC(C)(C)c1nc(N2CCC(N=C=S)C2)c2nnn(Cc3ccccc3Cl)c2n1 (centres undefined) | 5.25 | 5.87
Cc1nonc1Cn1nnc2c(N3CC[C@@H](S)C3)nc(C(C)(C)C)nc21 (single isomer, unassigned) | 5.10 | 6.19
